Source: patent US8871751B2, “Compositions and methods relating to nuclear hormone and steroid hormone receptors including inhibitors of estrogen receptor alpha-mediated gene expression and inhibition of breast cancer” (The Board of Trustees of the University of Illinois, priority 2008, dated 2014)

Test system: MCF-7 cells
Experiment: E2-dependent growth of MCF-7 cells (MTS)
Type: cell-based, human
Experimental: Assays for Cell Growth and Viability. Cells were maintained in the media listed above containing CD-treated serum for at least 4 days prior to the experiment. To minimize cell aggregation, MCF-7 cells were harvested in 10 mM Hepes, pH 7.4, 1 mM EDTA. Other cell lines were harvested in trypsin-EDTA. 1,000 cells were plated into each well of a 96 well plate. For slow growing ZR-75 cells, 2,000 cells were plated/well. The cells were maintained in medium containing CD-treated serum for 24 hours. At 24 hours the medium was changed and E2 and DMSO vehicle or TPSF in DMSO was added. The medium was replaced after 2 days (except for BT474 cells whose medium was not changed). After 4 days viable cells were determined using a cell viability test, Promega CellTiter 96 Aqueous One Solution Cell Proliferation Assay (MTS) (Promega, Wis.).

Cn1c(=S)c2[nH]c(SCCCC(=O)c3ccc(F)cc3)nc2n(C)c1=O [TPSF, Butyrophenone, p-fluoro-4-(1,2,3,6,-tetrahydro-1,3-dimethyl-2-oxo-6-thionopurin-8-ylthio)]
effect on E2-dependent growth of MCF-7 cells (7.5 μM): completely blocked
IC50 (Homo sapiens, MCF7, 96 h, 1 pM E2, 4 days, MTS, read-out: IC50 for inhibition of E2-dependent growth of MCF-7 cells): 2000 nM
